The values that follow come from article PMC8463504 (Journal of inorganic biochemistry, 2021).

Read-outs that look alike come from different tables or passages of the source. Where only a bound is given, the exact number is not on record here.

The target of series [1] is horse heart myoglobin (Mb) (Equus caballus, UniProt P68082). Description: biochemical.
Series [2] deals with T1, HbI (Phacoides pectinatus, UniProt P41260). As to conditions: pH 4 to 7 range.
Another series addresses adult hemoglobin (A-Hb) (Homo sapiens, UniProt P68871+P69905). Nature of the series: biochemical. The following applies: Measured fluoride binding dissociation constant (Kd).
In series [3] the target is T1, HbI. Description: biochemical. As to conditions: Measured fluoride binding dissociation constant (Kd), pH 5.0.
The target of series [4] is T2, HbIII (Phacoides pectinatus, UniProt P41262).
T2 sequence (P41262 1-153): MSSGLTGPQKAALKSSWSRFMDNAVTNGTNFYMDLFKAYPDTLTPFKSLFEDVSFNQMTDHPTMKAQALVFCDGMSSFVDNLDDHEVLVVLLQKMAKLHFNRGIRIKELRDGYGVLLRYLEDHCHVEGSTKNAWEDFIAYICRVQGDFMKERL
Nature of the series: biochemical.

Series [5] deals with T3, HbII (Phacoides pectinatus, UniProt P41261).
T3 sequence (P41261 1-151): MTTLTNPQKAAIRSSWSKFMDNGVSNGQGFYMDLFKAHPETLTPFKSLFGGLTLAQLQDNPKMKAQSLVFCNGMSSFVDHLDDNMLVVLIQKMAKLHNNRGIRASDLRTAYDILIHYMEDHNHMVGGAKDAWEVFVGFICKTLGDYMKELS
Nature of the series: biochemical.

Series [6] addresses T3, HbII. As to conditions: read-out: Equilibrium dissociation constant (Kd), pH 7.5; cited from earlier work.
Series [7] addresses T1, HbI. The following applies: cited from earlier work.
The target of series [8] is T2, HbIII. As to conditions: read-out: Equilibrium dissociation constant (Kd), pH 7.5; cited from earlier work.
The conditions of series [9]: cited from earlier work.
The format of series [10] is physicochemical. The following applies: for % folded protein: below pH 4.4; for pKa of acid denaturation: sigmoidal-Boltzmann fit of % folded protein vs pH.
For series [11], the target named is T1, HbI. As to conditions: read-out: Equilibrium dissociation constant (Kd), pH 7.5; cited from earlier work.
Series [12] concerns the target T2, HbIII. The following applies: read-out: Equilibrium dissociation constant (Kd), pH 7.5; cited from earlier work. This is another data set of the same source.
Series [13] has as its target T3, HbII. The following applies: read-out: Equilibrium dissociation constant (Kd), pH 7.5; cited from earlier work. This is another data set of the same source.
The target of the next series is HHMb. The following applies: read-out: Equilibrium dissociation constant (Kd), pH 7.5; cited from earlier work.
For the next series, the system named is His64. Nature of the series: other. As to conditions: ferric heme-bound fluoride complex; cited from earlier work.
Setting [14] is: Equilibrium dissociation constant (Kd), pH 7.5.
Where [15] appears, read: Measured fluoride binding dissociation constant (Kd), pH 5.0.
The mark [16] stands for this setting: Measured fluoride binding dissociation constant (Kd), pH 7.0.

Sequence of horse heart myoglobin (Mb) (P68082 whole entry): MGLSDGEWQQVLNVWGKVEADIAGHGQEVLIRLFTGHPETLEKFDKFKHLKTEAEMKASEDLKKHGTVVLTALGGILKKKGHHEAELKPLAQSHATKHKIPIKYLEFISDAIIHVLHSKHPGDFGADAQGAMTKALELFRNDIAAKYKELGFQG
T1 sequence (P41260 whole entry): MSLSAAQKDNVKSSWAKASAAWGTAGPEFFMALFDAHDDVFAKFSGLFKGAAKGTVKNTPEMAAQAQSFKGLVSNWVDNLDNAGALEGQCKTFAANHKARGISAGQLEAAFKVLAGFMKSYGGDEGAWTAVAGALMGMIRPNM
Sequence of adult hemoglobin (A-Hb) (P69905 2-142 limits assumed): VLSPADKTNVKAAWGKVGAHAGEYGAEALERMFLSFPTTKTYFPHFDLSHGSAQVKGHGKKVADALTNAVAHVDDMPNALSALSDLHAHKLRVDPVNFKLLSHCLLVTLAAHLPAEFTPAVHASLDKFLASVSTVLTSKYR
Sequence of adult hemoglobin (A-Hb) (P68871 2-147 limits assumed): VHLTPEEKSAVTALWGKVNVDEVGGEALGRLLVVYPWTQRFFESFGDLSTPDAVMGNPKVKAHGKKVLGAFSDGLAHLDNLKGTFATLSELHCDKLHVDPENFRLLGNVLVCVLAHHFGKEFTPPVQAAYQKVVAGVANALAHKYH

`F` [fluoride, sodium fluoride]: the Kd in series [1] (Equilibrium dissociation constant (Kd), HHMb, pH 7.5) is 41000 µM; in [1] (Measured fluoride binding dissociation constant (Kd), Mb, pH 5.0), 3000 ± 820 µM; in series [1] (Measured fluoride binding dissociation constant (Kd), Mb, pH 7.0), 25000 ± 2800 µM; on adult hemoglobin (A-Hb) (pH 5.0), 9300 ± 5800 µM; at adult hemoglobin (A-Hb) (pH 7.0) it was 33000 ± 4000 µM; at HbI [3], 100000 ± 61000 µM. In addition, the Kd at HbIII [4] (Apparent Kd from non-linear fit, above pH 12) stood at 4000 µM; on HbIII [4] (setting [14]) it was 2900 µM; at HbIII [4] (setting [15]), 500 ± 332 µM; at HbIII [4] (setting [16]) it was 3100 ± 370 µM; on HbII [5] (setting [14]), 3700 µM; at HbII [5] (setting [15]), 330 ± 67 µM. Also, the Kd at HbII [5] (setting [16]) is 1000 ± 156 µM. Besides, the “Fluoride affinity in HbI, lower than the other studied heme proteins” value on HbI [2] is “about two orders of magnitude”.

With `S` [H2S, Hydrogen sulfide], the Kd is 14.5 µM at HbII [6]; 0.0034 µM on HbI [7] (read-out: Equilibrium dissociation constant (Kd), HbI, pH 7.5); above 16 µM at HbIII [8]. Also, the “Affinity of HbI for H2S relative to HbII and HbIII” value on HbI [7] (HbI greater than HbII and HbIII) is 4,000 times. Moreover, the “pKa (H2S/HS^− equilibrium)” value in series [9] is given as 7.0.

For the molecule “A-Hb: Adult hemoglobin purchased from Sigma-Aldrich”, in series [10], the “% folded protein” value is reported as “less than 50%” and the “pKa of acid denaturation” value came to 4.4.

As for `O=O` [O2, oxygen], the Kd is around 0.4 µM on HbI [11], 0.26 µM at HbIII [12], 0.28 µM at HbII [13] and 1.3 µM on HHMb.

As to “Myoglobin (quoted literature values; species not stated in this article)”, the pKa with His64 is reported as 5.3–5.7.

B1: Mb: horse heart (methods: horse skeletal muscle) myoglobin purchased from Sigma-Aldrich (protein, UniProt P68082 2-154, looked up)
Myoglobin: GLSDGEWQQVLNVWGKVEADIAGHGQEVLIRLFTGHPETLEKFDKFKHLKTEAEMKASEDLKKHGTVVLTALGGILKKKGHHEAELKPLAQSHATKHKIPIKYLEFISDAIIHVLHSKHPGDFGADAQGAMTKALELFRNDIAAKYKELGFQG
As for B1, in [10], the “% folded protein” value was “less than 50%” and the “pKa of acid denaturation” value worked out at 4.4.
